This note sets out measurements from patent US11638706B2, “Methods for treating Huntington's disease” (PTC Therapeutics, Inc., priority 2015, dated 2023).

Some results are limits rather than exact numbers.

This test relates to Huntingtin protein (HTT). The test can be described thus: Endogenous Huntingtin Protein Assay (MSD electrochemiluminescence ELISA; MW1 or MAB2166 capture, #5656S detection). It is filed as cell-based, human. The method, then:
The Endogenous Huntingtin Protein assay used in Example 2 was developed using the Best Pair antibodies identified in Table 2, providing highly sensitive, high-throughput detection assays for polyglutamine-expanded (mHTT) and total human HTT in multiple cell systems. The platform used for the assay is the ELISA-based Meso Scale Discovery (MSD) electrochemiluminescence assay platform.
Meso Scale Discovery (MSD) 96-well or 384-well plates were coated overnight at 4° C. with MW1 (expanded polyglutamine) or MAB2166 monoclonal antibody (for capture) at a concentration of 1 μg/mL in PBS (30 μL per well). Plates were then washed three times with 300 μL wash buffer (0.05% Tween-20 in PBS) and blocked (100 μL blocking buffer; 5% BSA in PBS) for 4-5 hours at room temperature with rotational shaking and then washed three times with wash buffer.
Samples (25 μL) were transferred to the antibody-coated MSD plate and incubated overnight at 4° C. After removal of the lysates, the plate was washed three times with wash buffer, and 25 μL of #5656S (Cell signaling; rabbit monoclonal) secondary antibody (diluted to 0.25 μg/mL in 0.05% Tween-20 in blocking buffer) was added to each well and incubated with shaking for 1 Hour at room temperature. Following incubation with the secondary antibody, the wells were rinsed with wash buffer after which 25 μL of goat anti-rabbit SULFO TAG secondary detection antibody (required aspect of the MSD system) (diluted to 0.25 μg/mL in 0.05% Tween-20 in blocking buffer) was added to each well and incubated with shaking for 1 hour at room temperature. After rinsing three times with wash buffer, 150 μL of read buffer T with surfactant (MSD) were added to each empty well, and the plate was imaged on a SI 6000 imager (MSD) according to manufacturers' instructions provided for 96- or 384-well plates.
A general note: In an ELISA, binding on a coated surface is turned into a signal by an enzyme label.
`CN(c1ccc(-c2ccc3nn(C)cc3c2)nn1)C1CC(C)(C)NC(C)(C)C1` [Cpd 442, N-methyl-6-(2-methyl-2H-indazol-5-yl)-N-(2,2,6,6-tetramethylpiperidin-4-yl)pyridazin-3-amine] gave an IC50 of 3000 to 9000 nM.

On to `Oc1cc(-c2cn[nH]c2)ccc1-c1ccc(NC2CCNCC2)nn1` [Cpd 427, 2-[6-(piperidin-4-ylamino)pyridazin-3-yl]-5-(1H-pyrazol-4-yl)phenol], for which the IC50 is 100 to 500 nM.

With `CC1(C)CC(Oc2ccc(-c3ccc(-c4cn[nH]c4)cc3C(F)F)nn2)CC(C)(C)N1` [Cpd 464, 3-[2-(difluoromethyl)-4-(1H-pyrazol-4-yl)phenyl]-6-[(2,2,6,6-tetramethylpiperidin-4-yl)oxy]pyridazine], the IC50 fell in the range of 3000 to 9000 nM.

`CN(c1ccc(-c2ccc(-n3cc(N)cn3)cc2O)nn1)C1CC(C)(C)NC(C)(C)C1` [Cpd 47, 5-(4-amino-1H-pyrazole-1-yl)-2-(6-(methyl(2,2,6,6-tetramethylpiperidin-4-yl)amino)pyridazin-3-yl)phenol] gave an IC50 of 100 to 500 nM.

For `CN(c1ccc(-c2ccc(-c3cn[nH]c3)cc2F)nn1)C1CC(C)(C)NC(C)(C)C1` [Cpd 452, 6-[2-fluoro-4-(1H-pyrazol-4-yl)phenyl]-N-methyl-N-(2,2,6,6-tetramethylpiperidin-4-yl)pyridazin-3-amine], the IC50 was in the range of 3000 to 9000 nM.

`CN(c1ccc(-c2ccc3nccn3c2)nn1)C1CC(C)(C)NC(C)(C)C1` [Cpd 16, 6-(imidazo[1,2-a]pyridin-6-yl)-N-methyl-N-(2,2,6,6-tetramethylpiperidin-4-yl)pyridazin-3-amine] came in with a half-maximal inhibitory concentration (IC50) of 3000 to 9000 nM.

`CN(c1nnc(Oc2cccc(-c3cn[nH]c3)c2)s1)C1CC(C)(C)NC(C)(C)C1` [Cpd 462, N,2,2,6,6-pentamethyl-N-{5-[3-(1H-pyrazol-4-yl)phenoxy]-1,3,4-thiadiazol-2-yl}piperidin-4-amine] came in with an IC50 of 3000 to 9000 nM.

Molecule `Cn1cc(-c2ccc(-c3ccc(OC4CC(C)(C)NC(C)(C)C4)nn3)c(O)c2)cn1` [Cpd 414, 5-(1-methyl-1H-pyrazol-4-yl)-2-{6-[(2,2,6,6-tetramethylpiperidin-4-yl)oxy]pyridazin-3-yl}phenol] registered an IC50 not above 100 nM.

Turning to `CN(c1ccc(-c2ccc(O)cc2F)nn1)C1CC(C)(C)NC(C)(C)C1` [Cpd 440, 3-fluoro-4-{6-[methyl(2,2,6,6-tetramethylpiperidin-4-yl)amino]pyridazin-3-yl}phenol], the half-inhibitory concentration (IC50) was 3000 to 9000 nM.

As to `CN(c1ccc(-c2cc3cncnc3cc2O)nn1)C1CC(C)(C)NC(C)(C)C1` [Cpd 258, 6-(6-(methyl(2,2,6,6-tetramethylpiperidin-4-yl)amino)pyridazin-3-yl)quinazolin-7-ol], the IC50 is 100 to 500 nM.

As to `CC1CC(Oc2ccc(-c3ccc(-c4cn[nH]c4)cc3O)nn2)CC(C)N1` (stereo not shown) [Cpd 436, 2-{6-[(2,6-dimethylpiperidin-4-yl)oxy]pyridazin-3-yl}-5-(1H-pyrazol-4-yl)phenol], the concentration for half-maximal inhibition (IC50) lay within 500 to 1000 nM.

In turn, `CC1(C)CC(Oc2ccc(-c3ccc(-c4ccnc(O)c4)cc3O)nn2)CC(C)(C)N1` [Cpd 176, 4-(3-hydroxy-4-(6-((2,2,6,6-tetramethylpiperidin-4-yl)oxy)pyridazin-3-yl)phenyl)pyridin-2-ol] returned an IC50 not above 100 nM.

`CN(c1ccc(-c2ccc(-n3cc([N+](=O)[O-])cn3)cc2O)nn1)C1CC(C)(C)NC(C)(C)C1` [Cpd 419, 2-{6-[methyl(2,2,6,6-tetramethylpiperidin-4-yl)amino]pyridazin-3-yl}-5-(4-nitro-1H-pyrazol-1-yl)phenol] yielded an IC50 not above 100 nM.

On to `COc1cc(-c2cn[nH]c2)ccc1-c1nnc(N(C)C2CC(C)(C)NC(C)(C)C2)s1` [Cpd 307], for which the IC50 fell in the range of 100 to 500 nM.

Molecule `CC1(C)CC(Oc2ccc(-c3ccc(-n4ccnc4)cc3O)nn2)CC(C)(C)N1` [Cpd 417, 5-(1H-imidazol-1-yl)-2-{6-[(2,2,6,6-tetramethylpiperidin-4-yl)oxy]pyridazin-3-yl}phenol] returned an IC50 not above 100 nM.

Regarding `CN(c1nnc(-c2cc(F)c(-c3cn[nH]c3)cc2F)s1)C1CC(C)(C)NC(C)(C)C1` [Cpd 350], the IC50 was not above 100 nM.

As for `CC1(C)CC(Oc2ccc(-c3nc(-c4cn[nH]c4)ncc3N)nn2)CC(C)(C)N1` [Cpd 457, 2-(1H-pyrazol-4-yl)-4-{6-[(2,2,6,6-tetramethylpiperidin-4-yl)oxy]pyridazin-3-yl}pyrimidin-5-amine], the IC50 lay within 3000 to 9000 nM.

In turn, `CC1(C)CC(Oc2ccc(-c3ccc(-c4cn[nH]c4)cc3F)nn2)CC(C)(C)N1` [Cpd 437, 3-[2-fluoro-4-(1H-pyrazol-4-yl)phenyl]-6-[(2,2,6,6-tetramethylpiperidin-4-yl)oxy]pyridazine] yielded an IC50 of 1000 to 3000 nM.

Turning to `Oc1cc(-c2cn[nH]c2)ccc1-c1ccc(C2=CC3CCC(C2)N3)nn1` (stereo not shown) [Cpd 429, 2-[6-(8-azabicyclo[3.2.1]oct-2-en-3-yl)pyridazin-3-yl]-5-(1H-pyrazol-4-yl)phenol], the IC50 fell in the range of 100 to 500 nM.

In the case of `CN1CC=C(c2ccc(-c3ccc(-c4cn[nH]c4)cc3O)nn2)CC1` [Cpd 422, 2-[6-(1-methyl-1,2,3,6-tetrahydropyridin-4-yl)pyridazin-3-yl]-5-(1H-pyrazol-4-yl)phenol], the IC50 is not above 100 nM.

As for `Cc1nn2ccccc2c1-c1ccc(N(C)C2CC(C)(C)NC(C)(C)C2)nn1` [Cpd 445, N-methyl-6-(2-methylpyrazolo[1,5-a]pyridin-3-yl)-N-(2,2,6,6-tetramethylpiperidin-4-yl)pyridazin-3-amine], the IC50 was in the range of 3000 to 9000 nM.

`CC1(C)CC(Oc2ccc(-c3ccc(O)cc3O)nn2)CC(C)(C)N1` [Cpd 455, 4-{6-[(2,2,6,6-tetramethylpiperidin-4-yl)oxy]pyridazin-3-yl}benzene-1,3-diol]: the IC50 is 3000 to 9000 nM.

`CC1(C)CC(Oc2ccc(-c3cc(-c4cn[nH]c4)cs3)nn2)CC(C)(C)N1` [Cpd 450, 3-[4-(1H-pyrazol-4-yl)thiophen-2-yl]-6-[(2,2,6,6-tetramethylpiperidin-4-yl)oxy]pyridazine] gave an IC50 of 3000 to 9000 nM.

With `CC1(C)CC(Oc2ccc(-c3ccc(-n4cc([N+](=O)[O-])cn4)cc3O)nn2)CC(C)(C)N1` [Cpd 423, 5-(4-nitro-1H-pyrazol-1-yl)-2-{6-[(2,2,6,6-tetramethylpiperidin-4-yl)oxy]pyridazin-3-yl}phenol], the IC50 is not above 100 nM.

As to `CN(c1ccc(-c2ccc(-c3cn[nH]c3)c(F)c2F)nn1)C1CC(C)(C)NC(C)(C)C1` [Cpd 430, 6-[2,3-difluoro-4-(1H-pyrazol-4-yl)phenyl]-N-methyl-N-(2,2,6,6-tetramethylpiperidin-4-yl)pyridazin-3-amine], the IC50 lay within 100 to 500 nM.

Molecule `CN(c1ccc(-c2ccc(-c3cn[nH]c3)cc2O)nn1)C1CC(C)(C)NC(C)(C)C1` [Cpd 48, 2-(6-(methyl(2,2,6,6-tetramethylpiperidin-4-yl)amino)pyridazin-3-yl)-5-(1H-pyrazol-4-yl)phenol] came in with an IC50 not above 100 nM.

In turn, `COc1cc(-n2cc([N+](=O)[O-])cn2)ccc1-c1ccc(N(C)C2CC(C)(C)NC(C)(C)C2)nn1` [Cpd 420, 6-[2-methoxy-4-(4-nitro-1H-pyrazol-1-yl)phenyl]-N-methyl-N-(2,2,6,6-tetramethylpiperidin-4-yl)pyridazin-3-amine] had an IC50 not above 100 nM.

Take `COc1nc(-c2cn[nH]c2)ccc1-c1ccc(N(C)C2CC(C)(C)NC(C)(C)C2)nn1` [Cpd 434, 6-[2-methoxy-6-(1H-pyrazol-4-yl)pyridin-3-yl]-N-methyl-N-(2,2,6,6-tetramethylpiperidin-4-yl)pyridazin-3-amine]: the IC50 lay within 500 to 1000 nM.

`Oc1cc(-c2cn[nH]c2)ccc1-c1ccc(N2C[C@H]3CNC[C@H]3C2)nn1` [Cpd 200, 2-(6-((3aR,6aS)-hexahydropyrrolo[3,4-c]pyrrol-2(1H)-yl)pyridazin-3-yl)-5-(1H-pyrazol-4-yl)phenol] came in with an IC50 not above 100 nM.

`CN(c1nnc(Oc2ccc(-c3cn[nH]c3)cc2)s1)C1CC(C)(C)NC(C)(C)C1` [Cpd 463, N,2,2,6,6-pentamethyl-N-{5-[4-(1H-pyrazol-4-yl)phenoxy]-1,3,4-thiadiazol-2-yl}piperidin-4-amine]: the IC50 lay within 3000 to 9000 nM.

In turn, `CCN1CC=C(c2ccc(-c3ccc(-c4cn[nH]c4)cc3O)nn2)CC1` [Cpd 425, 2-[6-(1-ethyl-1,2,3,6-tetrahydropyridin-4-yl)pyridazin-3-yl]-5-(1H-pyrazol-4-yl)phenol] registered an IC50 of 100 to 500 nM.

In turn, `CN(c1ccc(-c2ccc(-c3cnn(C)c3)cc2O)nn1)C1CC(C)(C)NC(C)(C)C1` [Cpd 51, 2-(6-(methyl(2,2,6,6-tetramethylpiperidin-4-yl)amino)pyridazin-3-yl)-5-(1-methyl-1H-pyrazol-4-yl)phenol] gave an IC50 not above 100 nM.

On to `Cc1[nH]ncc1-c1ccc(-c2ccc(N(C)C3CC(C)(C)NC(C)(C)C3)nn2)c(O)c1` [Cpd 416, 5-(5-methyl-1H-pyrazol-4-yl)-2-{6-[methyl(2,2,6,6-tetramethylpiperidin-4-yl)amino]pyridazin-3-yl}phenol], for which the IC50 is not above 100 nM.

`CC1(C)CC(Oc2ccc(-c3cc4ccccc4cc3O)nn2)CC(C)(C)N1` [Cpd 31, 3-(6-((2,2,6,6-tetramethylpiperidin-4-yl)oxy)pyridazin-3-yl)naphthalen-2-ol] had an IC50 of 100 to 500 nM.

Broadly, the IC50 is the point on the concentration scale where inhibition reaches its midpoint. Higher therefore signals lower potency.
